In patent publication US20230365554A1, “SUBSTITUTED PYRROLO-PYRIDINONE DERIVATIVES AND THERAPEUTIC USES THEREOF” (The Broad Institute, Inc., priority 2020, published 2023) one finds IC50 data, which are given here for 7 molecules.

One assay has as its target human CSNK1A1 (Homo sapiens (Human), UniProt P48729). As to the kind of experiment: CSNK1A1 Assay 2 (ADP-Glo, 1 μM ATP). In kind it is biochemical. The note with it: median, Table 2, read-out: CSNK1A1 Assay 2 IC50 [mol/l] (median). In short, it runs like this:
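GST-tagged full-length human CSNK1A1 from insect cells, preincubated 15 min with compound, then reacted 30 min at 22° C with 1 μM ATP and 30 μM biotinylated peptide substrate in pH 7.5 HEPES buffer. ADP measured by ADP-Glo luminescence; normalised to no-inhibitor (0%) and no-enzyme (100%) controls.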
(In general: In ADP-Glo the light output rises with the ADP produced.)

A further assay has as its target human CSNK1D (Homo sapiens (Human), UniProt P48730). In words: CSNK1D assay (ADP-Glo, 1 μM ATP). In kind it is biochemical. The note with it: median, Table 2, read-out: CSNK1D IC50 [mol/l] (median). In outline: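 GST-tagged full-length human CSNK1D (baculovirus/insect cell; typically about 0.5 ng/μL) preincubated with compound 15 min, then reacted 30 min at 22 °C with 1 μM ATP and 30 μM biotinylated peptide (final) in HEPES pH 7.5 buffer. ADP quantified by ADP-Glo luminescence; data normalised to no-inhibitor and no-enzyme controls.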

Chain of human CSNK1D (P48730 whole entry): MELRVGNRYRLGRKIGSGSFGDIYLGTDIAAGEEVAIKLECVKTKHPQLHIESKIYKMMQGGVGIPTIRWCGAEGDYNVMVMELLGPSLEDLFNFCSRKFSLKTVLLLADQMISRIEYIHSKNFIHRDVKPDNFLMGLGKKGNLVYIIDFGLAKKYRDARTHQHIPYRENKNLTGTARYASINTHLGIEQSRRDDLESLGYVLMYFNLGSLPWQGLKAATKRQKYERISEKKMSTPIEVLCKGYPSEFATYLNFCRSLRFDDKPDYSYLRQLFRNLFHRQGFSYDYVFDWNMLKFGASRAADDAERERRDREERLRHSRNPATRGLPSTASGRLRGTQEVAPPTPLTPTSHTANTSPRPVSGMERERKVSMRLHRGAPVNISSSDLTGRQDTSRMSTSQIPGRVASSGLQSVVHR
Chain of human CSNK1A1 (P48729 whole entry): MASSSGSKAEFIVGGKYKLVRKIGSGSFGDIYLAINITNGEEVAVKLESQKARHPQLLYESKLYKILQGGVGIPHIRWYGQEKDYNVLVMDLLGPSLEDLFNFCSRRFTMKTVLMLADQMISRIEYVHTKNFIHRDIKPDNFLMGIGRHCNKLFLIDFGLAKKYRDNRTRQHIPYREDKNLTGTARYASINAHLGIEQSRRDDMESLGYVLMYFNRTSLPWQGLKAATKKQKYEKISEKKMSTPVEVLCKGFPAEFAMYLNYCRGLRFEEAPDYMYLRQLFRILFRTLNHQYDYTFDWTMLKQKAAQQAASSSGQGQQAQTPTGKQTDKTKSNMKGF

`Cc1cn(C)c(=O)c2c(Nc3ccccc3)c(-c3ccnc(NC(=O)C(CC(F)F)c4ccc(F)cc4)c3)[nH]c12` (racemic) [Example 11, N-[4-(3-anilino-5,7-dimethyl-4-oxo-4,5-dihydro-1H-pyrrolo[3,2-c]pyridin-2-yl)pyridin-2-yl]-4,4-difluoro-2-(4-fluorophenyl)butanamide]: the IC50 on human CSNK1A1 came out at 19 nM; at human CSNK1D it was 25 nM.
For `Cc1ccccc1Nc1c(-c2ccnc(NC(=O)Cc3ccc(F)cc3)c2)[nH]c2c(CC(F)(F)F)cn(C)c(=O)c12` [Example 33, 2-(4-fluorophenyl)-N-{4-[5-methyl-3-(2-methylanilino)-4-oxo-7-(2,2,2-trifluoroethyl)-4,5-dihydro-1H-pyrrolo[3,2-c]pyridin-2-yl]pyridin-2-yl}acetamide] the same measures were 8.6 nM and 6.2 nM.
As for `Cc1cn(C)c(=O)c2c(Nc3ccccc3)c(-c3ccnc(NC(=O)C(C)c4ccc(F)cc4)c3)[nH]c12` (racemic) [Example 39, N-[4-(3-anilino-5,7-dimethyl-4-oxo-4,5-dihydro-1H-pyrrolo[3,2-c]pyridin-2-yl)pyridin-2-yl]-2-(4-fluorophenyl)propanamide], the results for the IC50 on human CSNK1A1 and on human CSNK1D were 51 nM and 56 nM, respectively.
On to `CN1CC(CC(F)(F)F)c2[nH]c(-c3ccnc(NC(=O)Cc4ccc(F)cc4)c3)c(Nc3cscn3)c2C1=O` (racemic) [Example 46, 2-(4-fluorophenyl)-N-{4-[(7RS)-5-methyl-4-oxo-3-(1,3-thiazol-4-ylamino)-7-(2,2,2-trifluoroethyl)-4,5,6,7-tetrahydro-1H-pyrrolo[3,2-c]pyridin-2-yl]pyridin-2-yl}acetamide], for which the IC50 at human CSNK1A1 is 23 nM; at human CSNK1D, 72 nM.
For `Cn1ccc2[nH]c(-c3ccnc(NC(=O)C(CC(F)F)c4ccc(F)cc4)c3)c(Nc3ccccc3)c2c1=O` (single isomer, unassigned) [Example 30, N-[4-(3-anilino-5-methyl-4-oxo-4,5-dihydro-1H-pyrrolo[3,2-c]pyridin-2-yl)pyridin-2-yl]-4,4-difluoro-2-(4-fluorophenyl)butanamide] the same measures were 3.7 nM and 7.1 nM.
As for `CN1CC(CC(F)(F)F)c2[nH]c(-c3ccnc(NC(=O)Cc4ccc(F)cc4)c3)c(Nc3ccccc3)c2C1=O` (racemic) [Example 14, N-{4-[3-anilino-5-methyl-4-oxo-7-(2,2,2-trifluoroethyl)-4,5,6,7-tetrahydro-1H-pyrrolo[3,2-c]pyridin-2-yl]pyridin-2-yl}-2-(4-fluorophenyl)acetamide], the IC50 was 3.1 nM on human CSNK1A1 and 5.1 nM at human CSNK1D.
For `Cn1cc(CC(F)F)c2[nH]c(-c3ccnc(NC(=O)Cc4ccc(F)cc4)c3)c(Nc3ccccc3)c2c1=O` [Example 45, N-{4-[3-anilino-7-(2,2-difluoroethyl)-5-methyl-4-oxo-4,5-dihydro-1H-pyrrolo[3,2-c]pyridin-2-yl]pyridin-2-yl}-2-(4-fluorophenyl)acetamide], the IC50 at human CSNK1A1 is 5.7 nM; at human CSNK1D, 9.7 nM.
